Results published in ChEMBL document CHEMBL4145486, “Design, synthesis and biological evaluation of LX2343 derivatives as neuroprotective agents for the treatment of Alzheimer's disease” (Eur J Med Chem, 2018).
Activity calls are given as the source filed them. No cut-off for these calls is given here.

What was measured:
[1] = system: SH-SY5Y; assay: Neuroprotective activity against STZ induced cell death of human SH-SY5Y cells after 24 hrs by MTT assay; assay type: functional, cell-based
[2] = molecular target: Amyloid-beta precursor protein (Homo sapiens) (UniProt P05067); assay: Inhibition of STZ induced beta amyloid (unknown origin) deposition in HEK293 cells harboring APPSW mutant at 20 uM by ELISA; assay type: cell-based
Amyloid-beta precursor protein (Homo sapiens), sequence (P05067 whole entry): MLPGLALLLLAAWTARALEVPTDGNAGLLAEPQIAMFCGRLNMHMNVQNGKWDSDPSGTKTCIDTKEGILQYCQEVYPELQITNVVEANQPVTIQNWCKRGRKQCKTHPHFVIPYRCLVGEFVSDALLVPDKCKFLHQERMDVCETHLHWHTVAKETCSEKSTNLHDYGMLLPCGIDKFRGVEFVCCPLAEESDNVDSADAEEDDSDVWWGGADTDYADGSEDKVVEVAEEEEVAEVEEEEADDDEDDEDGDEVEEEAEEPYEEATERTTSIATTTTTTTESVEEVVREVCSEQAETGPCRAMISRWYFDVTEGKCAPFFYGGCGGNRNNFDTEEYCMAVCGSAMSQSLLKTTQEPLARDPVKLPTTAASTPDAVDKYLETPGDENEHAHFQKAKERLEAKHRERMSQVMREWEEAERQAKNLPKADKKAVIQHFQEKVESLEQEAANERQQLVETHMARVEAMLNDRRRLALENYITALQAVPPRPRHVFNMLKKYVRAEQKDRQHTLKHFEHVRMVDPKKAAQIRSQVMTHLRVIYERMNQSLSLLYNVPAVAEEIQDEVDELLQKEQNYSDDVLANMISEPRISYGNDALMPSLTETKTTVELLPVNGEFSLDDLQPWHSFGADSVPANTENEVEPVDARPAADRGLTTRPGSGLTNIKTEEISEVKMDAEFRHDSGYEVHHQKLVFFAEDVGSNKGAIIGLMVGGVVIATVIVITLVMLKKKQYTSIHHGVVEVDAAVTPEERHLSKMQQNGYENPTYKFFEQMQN

[3] = system: Mus musculus; assay: Toxicity in APP1/PS1 transgenic mouse assessed as change in body weight at 15 to 30 mg/kg, ip administered 100 days; assay type: organism-based; conditions: in vivo, 2400 h
[4] = system: Mus musculus; assay: Toxicity in APP1/PS1 transgenic mouse assessed as effect on liver function at 15 to 30 mg/kg, ip administered 100 days; assay type: organism-based; conditions: in vivo, 2400 h
[5] = system: Mus musculus; assay: Antialzheimer activity in APP1/PS1 transgenic mouse assessed as decrease in escape latencies at 30 mg/kg, ip administered 100 days prior to testing and measured at day 6 post continuous dosing by Morris water maze test; assay type: functional, organism-based
[6] = system: Mus musculus; assay: Antialzheimer activity in APP1/PS1 transgenic mouse assessed as decrease in prolonged path length at 30 mg/kg, ip administered 100 days prior to testing and measured at day 6 post continuous dosing by Morris water maze test; assay type: functional, organism-based
[7] = molecular target: Microtubule-associated protein tau (Homo sapiens) (UniProt P10636); assay: Inhibition of STZ induced tau hyperphosphorylation at ser396 residues in human SH-SY5Y cells at 20 uM by immunohistochemical assay; assay type: cell-based
Microtubule-associated protein tau (Homo sapiens), sequence (P10636 whole entry): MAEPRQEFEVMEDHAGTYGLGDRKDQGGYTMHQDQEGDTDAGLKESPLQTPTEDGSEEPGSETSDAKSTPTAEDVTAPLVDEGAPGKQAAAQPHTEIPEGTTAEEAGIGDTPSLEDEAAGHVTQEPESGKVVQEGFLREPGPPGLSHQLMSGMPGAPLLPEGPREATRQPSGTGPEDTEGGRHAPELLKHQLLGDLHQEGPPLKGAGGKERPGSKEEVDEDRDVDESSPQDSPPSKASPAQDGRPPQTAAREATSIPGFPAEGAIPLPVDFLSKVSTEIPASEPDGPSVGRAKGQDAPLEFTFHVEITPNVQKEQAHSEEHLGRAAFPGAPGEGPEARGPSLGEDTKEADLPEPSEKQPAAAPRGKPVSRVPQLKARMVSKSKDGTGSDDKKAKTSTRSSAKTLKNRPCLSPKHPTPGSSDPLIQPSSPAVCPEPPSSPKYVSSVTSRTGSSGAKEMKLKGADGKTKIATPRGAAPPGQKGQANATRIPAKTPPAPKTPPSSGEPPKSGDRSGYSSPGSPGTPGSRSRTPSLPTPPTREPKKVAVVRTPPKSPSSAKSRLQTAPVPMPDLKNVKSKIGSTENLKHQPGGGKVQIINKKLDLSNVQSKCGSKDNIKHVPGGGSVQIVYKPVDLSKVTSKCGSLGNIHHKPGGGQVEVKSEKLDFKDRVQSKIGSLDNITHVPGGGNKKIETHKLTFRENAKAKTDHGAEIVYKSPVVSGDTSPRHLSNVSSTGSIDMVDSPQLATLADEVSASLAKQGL

[8] = system: Mus musculus; assay: Toxicity in APP1/PS1 transgenic mouse assessed as change in swimming speed at 15 to 30 mg/kg, ip administered 100 days; assay type: organism-based; conditions: in vivo, 2400 h
[9] = molecular target: Amyloid-beta precursor protein (Homo sapiens) (UniProt P05067); assay: Inhibition of STZ induced beta amyloid clearance in human SH-SY5Y cells by ELISA; assay type: cell-based

Row | SMILES | EC50 [1] [µM] | further results
1 | COc1ccc(Cl)cc1N(CC(=O)NC12CC3CC(C)(CC(C)(C3)C1)C2)C(=O)c1ccccc1 | > 20 | –
2 | COc1ccc(Cl)cc1N(CC(=O)NC12CC3CC(C)(CC(C)(C3)C1)C2)S(=O)(=O)c1ccc(C)cc1 | > 20 | –
3 | COc1ccc(Cl)cc1N(CC(=O)NC12CC3CC(C)(CC(C)(C3)C1)C2)S(=O)(=O)c1ccccc1 | 0.22 | inhibition [2]: Active; Activity [3]: Non-Toxic; Activity [4]: Non-Toxic; Activity [5]: Active; Activity [6]: Active; inhibition [7]: Active; Activity [8]: Non-Toxic; inhibition [9]: Active
4 | COc1ccc(NC(=O)CN(c2cc(Cl)ccc2OC)S(=O)(=O)c2ccccc2)cc1 | 16.2 | –
5 | CC12CC3CC(C)(C1)CC(NC(=O)CN(c1ccccc1Cl)S(=O)(=O)c1ccccc1)(C3)C2 | 16.1 | –
6 | COc1ccc(Cl)cc1N(CC(=O)Nc1cccc2c3ccccc3n(C)c12)S(=O)(=O)c1ccccc1 | 3.18 | inhibition [2]: Active; inhibition [9]: Active
7 | COc1ccc(Cl)cc1N(CC(=O)Nc1ccccc1)S(=O)(=O)c1ccccc1 | > 20 | –
8 | CC12CC3CC(C)(C1)CC(NC(=O)CN(C1CCCCC1)S(=O)(=O)c1ccccc1)(C3)C2 | > 20 | –
9 | CCn1c2ccccc2c2cc(NC(=O)CN(c3cc(Cl)ccc3OC)S(=O)(=O)c3ccccc3)ccc21 | 0.25 | inhibition [2]: Active; inhibition [9]: Active
10 | COc1ccc(Cl)cc1N(CC(=O)N1CCCCC1)S(=O)(=O)c1ccccc1 | 14.5 | inhibition [2]: Active
11 | CCn1ccc2cc(NC(=O)CN(c3cc(Cl)ccc3OC)S(=O)(=O)c3ccccc3)ccc21 | 2.22 | –
12 | COc1ccc(Cl)cc1N(CC(=O)Nc1ccc2[nH]c3ccccc3c2c1)S(=O)(=O)c1ccccc1 | 2.75 | –
13 | CCN(CC)C(=O)CN(c1cc(Cl)ccc1OC)S(=O)(=O)c1ccccc1 | > 20 | –
14 | COc1ccc(CNC(=O)CN(c2cc(Cl)ccc2OC)S(=O)(=O)c2ccccc2)cc1 | > 20 | –
15 | COc1ccc(Cl)cc1N(CC(=O)Nc1ccc([N+](=O)[O-])cc1)S(=O)(=O)c1ccccc1 | 8.21 | –
16 | CCCNC(=O)CN(c1cc(Cl)ccc1OC)S(=O)(=O)c1ccccc1 | > 20 | –
17 | COc1ccc(Cl)cc1N(CC(=O)Nc1ccc(C(F)(F)F)cc1)S(=O)(=O)c1ccccc1 | 3.75 | inhibition [2]: Active; inhibition [7]: Active; inhibition [9]: Active
18 | COc1ccc(Cl)cc1N(CC(=O)N1CCc2ccccc21)S(=O)(=O)c1ccccc1 | > 20 | –

Row | SMILES | EC50 [1] [µM] | further results
19 | COc1ccc(Cl)cc1NC(=O)CN(c1cc(Cl)ccc1OC)S(=O)(=O)c1ccccc1 | > 20 | –
20 | COc1ccc(Cl)cc1N(CC(=O)Nc1ccc(Cl)cc1)S(=O)(=O)c1ccccc1 | > 20 | –
21 | COc1ccccc1NC(=O)CN(c1cc(Cl)ccc1OC)S(=O)(=O)c1ccccc1 | 15.5 | –
22 | COc1cccc(NC(=O)CN(c2cc(Cl)ccc2OC)S(=O)(=O)c2ccccc2)c1 | 17.6 | –
23 | CC12CC3CC(C)(C1)CC(NC(=O)CN(c1cccc(Cl)c1)S(=O)(=O)c1ccccc1)(C3)C2 | 12.3 | –
24 | COc1ccc(NC(=O)CN(c2cc(Cl)ccc2OC)S(=O)(=O)c2ccccc2)cc1OC | > 20 | –
25 | COc1ccc(Cl)cc1N(CC(=O)Nc1cccc2c1[nH]c1ccccc12)S(=O)(=O)c1ccccc1 | 6.56 | –
26 | Cc1ccc(N(CC(=O)NC23CC4CC(C)(CC(C)(C4)C2)C3)S(=O)(=O)c2ccccc2)cc1Cl | 8.86 | –
27 | CC12CC3CC(C)(C1)CC(NC(=O)CN(c1ccccc1)S(=O)(=O)c1ccccc1)(C3)C2 | > 20 | –
28 | COc1ccc(Cl)cc1N(CC(=O)Nc1cccc2ccccc12)S(=O)(=O)c1ccccc1 | 17.4 | –
29 | COc1ccc(Cl)cc1N(CC(=O)Nc1ccc2c(c1)c1ccccc1n2C)S(=O)(=O)c1ccccc1 | 1.32 | –
30 | COc1ccc(Cl)cc1N(CC(=O)N(C1CCCCC1)C1CCCCC1)S(=O)(=O)c1ccccc1 | 14.3 | –
31 | COc1ccc(Cl)cc1N(CC(=O)NC12CC3CC(C)(CC(C)(C3)C1)C2)S(=O)(=O)c1ccc([N+](=O)[O-])cc1 | > 20 | –
32 | COc1ccc(Cl)cc1N(CC(=O)NC12CC3CC(C)(CC(C)(C3)C1)C2)S(=O)(=O)c1ccc(Cl)cc1 | > 20 | –
33 | CC12CC3CC(C)(C1)CC(NC(=O)CN(c1ccc(Cl)cc1)S(=O)(=O)c1ccccc1)(C3)C2 | > 20 | –
34 | COc1ccc(Cl)cc1N(CC(=O)NC1CCCCC1)S(=O)(=O)c1ccccc1 | 17.6 | –
35 | Cc1c(Cl)cccc1N(CC(=O)NC12CC3CC(C)(CC(C)(C3)C1)C2)S(=O)(=O)c1ccccc1 | > 20 | –
